Data on ten compounds can be found in PMC3070735, “Uremic Toxins Inhibit Transport by Breast Cancer Resistance Protein and Multidrug Resistance Protein 4 at Clinically Relevant Concentrations” (PLoS ONE, 2011).

This data set has as its target T1, MRP4 (Homo sapiens, UniProt O15439).
T1 sequence (O15439 1-1325): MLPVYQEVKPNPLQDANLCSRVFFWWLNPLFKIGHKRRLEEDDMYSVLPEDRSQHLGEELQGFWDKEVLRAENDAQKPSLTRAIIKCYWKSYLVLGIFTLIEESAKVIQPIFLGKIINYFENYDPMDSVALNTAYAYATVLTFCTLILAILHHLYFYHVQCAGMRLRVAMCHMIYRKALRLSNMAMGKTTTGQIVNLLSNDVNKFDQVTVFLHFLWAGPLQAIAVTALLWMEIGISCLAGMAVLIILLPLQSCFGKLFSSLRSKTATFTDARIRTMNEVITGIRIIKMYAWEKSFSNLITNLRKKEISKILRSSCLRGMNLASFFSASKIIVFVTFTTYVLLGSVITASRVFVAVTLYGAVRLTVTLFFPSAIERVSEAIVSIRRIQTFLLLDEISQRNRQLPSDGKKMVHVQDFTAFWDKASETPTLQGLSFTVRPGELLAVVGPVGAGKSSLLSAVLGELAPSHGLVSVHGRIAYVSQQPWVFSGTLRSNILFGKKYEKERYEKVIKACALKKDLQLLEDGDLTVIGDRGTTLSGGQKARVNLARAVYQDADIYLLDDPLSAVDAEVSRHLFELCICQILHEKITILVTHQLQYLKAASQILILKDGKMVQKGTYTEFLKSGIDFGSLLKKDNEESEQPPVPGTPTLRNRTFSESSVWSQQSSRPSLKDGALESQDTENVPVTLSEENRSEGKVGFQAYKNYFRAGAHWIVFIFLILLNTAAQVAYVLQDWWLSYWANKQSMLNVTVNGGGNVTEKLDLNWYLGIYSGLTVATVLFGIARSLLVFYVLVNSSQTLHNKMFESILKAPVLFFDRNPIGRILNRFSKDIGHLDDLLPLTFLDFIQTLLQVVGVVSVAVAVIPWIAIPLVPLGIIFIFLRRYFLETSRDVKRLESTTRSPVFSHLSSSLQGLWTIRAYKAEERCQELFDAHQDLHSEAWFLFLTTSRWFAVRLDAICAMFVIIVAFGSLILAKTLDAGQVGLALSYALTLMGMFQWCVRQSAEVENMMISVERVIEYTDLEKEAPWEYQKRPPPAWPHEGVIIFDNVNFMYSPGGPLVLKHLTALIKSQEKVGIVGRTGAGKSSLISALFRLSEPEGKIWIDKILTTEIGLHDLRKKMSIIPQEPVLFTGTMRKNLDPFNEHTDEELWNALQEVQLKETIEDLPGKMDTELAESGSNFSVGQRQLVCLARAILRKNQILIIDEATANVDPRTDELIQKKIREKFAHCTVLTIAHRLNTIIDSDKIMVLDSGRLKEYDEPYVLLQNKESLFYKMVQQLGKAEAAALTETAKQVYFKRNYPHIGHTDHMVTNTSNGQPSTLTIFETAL
The data set is described as follows: Membrane vesicle transport inhibition assay: MRP4-mediated [3H]-MTX uptake. The note with it: for Mode of inhibition of MRP4-mediated transport: Dixon plot, three [3H]-MTX concentrations; for IC20 at 10 min: human; for Effect on transport mediated by MRP4 / Decrease of MRP4-mediated transport compared to control: [3H]-MTX uptake; for Effect on transport mediated by MRP4: result in words; for Decrease of MRP4-mediated transport compared to control: toxin 1 mM. As to the method: Human embryonic kidney (HEK293; purchased at American Type Culture Collection, Manassas, VA) cells were cultured in Dulbecco's modified Eagle's medium (Invitrogen life sciences, Breda, the Netherlands) containing 10% (v/v) fetal calf serum (MP Biomedicals, Uden, the Netherlands) at 37°C in a 5% (v/v) CO2 atmosphere. To functionally overexpress MRP4 and BCRP, HEK293 cells were transduced with baculoviruses of human MRP4, BCRP or enhanced yellow fluorescent protein (EYFP), generated via the Bac-to-Bac system (Invitrogen) as previously described. To transduce HEK293 cells, they were cultured in 500 cm^2 flasks until 70% confluence. Subsequently, medium was removed and 10 ml of virus and 25 ml of medium were added and incubated for 30 min at 37°C. Next, 50 ml of medium was added and after 2 h of transduction 5 mM sodium butyrate was added.
Three days after transduction, cells were harvested and pelleted by centrifugation (30 min at 4,000 x g). Afterwards, the cells were resuspended in ice-cold hypotonic TS buffer (0.5 mM sodium phosphate, 0.1 mM EDTA, pH 7.0) containing protease inhibitors (100 µM phenylmethylsulfonyl fluoride, 5 µg/ml aprotinin, 5 µg/ml leupeptin, 1 µg/ml pepstatin and 1 µg/ml E-64) and shaken for 30 min at 4°C. Cells were then centrifuged at 100,000 x g for 30 min at 4°C. […] Afterwards, supernatant was centrifuged at 100,000 x g for 1 h at 4°C. […] The protein content of samples was determined using the Bio-Rad protein assay (Veenendaal, the Netherlands), according to manufacturers recommendations. Vesicles were frozen in liquid nitrogen and stored at −80°C until use. The orientation of the membrane vesicles was not determined, since ATP-dependent uptake occurs only in inside-out vesicles.
A rapid filtration technique was used to study the uptake of [^3H]-MTX and [^3H]-E1S into MRP4 or BCRP membrane vesicles, as previously described. In short, 25 µl of TS buffer containing 4 mM ATP, 10 mM MgCl2 and radiolabeled substrate was added to 5 µl of the membrane vesicles (1.5 mg/ml). The transport assay was performed in the absence or presence of various concentrations of uremic toxins to evaluate the inhibitory effects of these compounds on MRP4-mediated [^3H]-MTX uptake and BCRP-mediated [^3H]-E1S uptake. […] Uptake was stopped by placing the samples on ice and the addition of 150 µl ice cold TS buffer. Subsequently, the samples were transferred to a 96 well filter plate (Millipore, Etten-leur, the Netherlands) pre-incubated with TS buffer and filtered using a Multiscreen HTS-Vacuum Manifold filtration device (Millipore). Afterwards, 2 ml of scintillation liquid was added to each filter and radioactivity was determined using liquid scintillation counting. As negative controls ATP was substituted for AMP and EYFP-membrane vesicles were used. Each experiment was performed in triplicates.
Differences between groups were considered to be statistically significant when p<0.05. The mean IC50 and IC20 values were calculated from the inhibition curves used for the Dixon analysis and to determine the inhibition constant (Ki) from the Dixon plots. Transport inhibition studies were performed in triplicate and repeated at least three times.

The mark [1] stands for this setting: membrane vesicles from HEK293 cells overexpressing MRP4, pH 7, probe [3H]-methotrexate ([3H]-MTX).
Setting [2] is: IC50 (concentration inhibiting 50% of transport by MRP4), MRP4-mediated [3H]-MTX uptake.
Setting [3] is: IC50, [3H]-MTX uptake into MRP4 membrane vesicles, 10 min, 37°C, mean ± SEM of three experiments.

Structures can show the parent of a compound that is named as a salt. Where two headings read alike, the source gives them in different places.

Consider `O=S(=O)(O)Oc1c[nH]c2ccccc12` [indoxyl sulfate], for which the midpoint of inhibition, the IC50, lay at 1750 ± 110 µM; the Ki worked out at 1000 ± 90 µM; the “Mode of inhibition of MRP4-mediated transport” value is on record as “non-competitive”. This compound also gave a concentration for an effect of 20% (IC20) at 10 min under setting [1] of 530 ± 70 µM.
Consider `NCCCCN` [putrescine], for which the “Effect on transport mediated by MRP4” value is “did not alter transport” and the “Decrease of MRP4-mediated transport compared to control” value (from here on “Decrease of MRP4-mediated transport”) is on record as at most 10%.
Regarding `O=C(O)Cc1ccccc1` [phenylacetic acid], the IC50 by setting is: under setting [2], 7000 µM; under setting [3], 7100 ± 1600 µM. This compound yielded an IC20 at 10 min (pH 7) of 1600 ± 170 µM.
For `Cc1ccc(O)cc1` [p-cresol], the “Effect on transport mediated by MRP4” value is reported as “did not alter transport” and the “Decrease of MRP4-mediated transport” value is at most 10%.
For the compound `O=C(O)CNC(=O)c1ccccc1` [hippuric acid], the Ki was 2500 ± 50 µM and the “Mode of inhibition of MRP4-mediated transport” value is listed as “non-competitive”. Also, the IC50 under setting [2] is 2500 µM. Besides, the 50% inhibitory concentration (IC50) under setting [3] was found to be 990 ± 180 µM. Under setting [1], the IC20 at 10 min was determined as 350 ± 20 µM.
`O=C(O)c1cc(=O)c2ccccc2[nH]1` [kynurenic acid] gave a half-maximal inhibitory concentration (IC50) of 8 ± 1 µM and an inhibition constant Ki of 25 ± 2 µM. It took 1.5 ± 0.3 µM to reach the 20% level under setting [1] (IC20 at 10 min).
Turning to `O=C(O)Cc1c[nH]c2ccccc12` [indole-3-acetic acid], the affinity, expressed as Ki, was 2000 ± 70 µM and the “Mode of inhibition of MRP4-mediated transport” value is reported as “non-competitive”. This compound displayed a half-inhibitory concentration (IC50) under setting [3] of 1795 ± 8 µM. Besides, the IC20 at 10 min under setting [1] worked out at 570 ± 30 µM.
For `O=C(O)C(=O)O` [oxalate], the “Effect on transport mediated by MRP4” value is “did not alter transport” and the “Decrease of MRP4-mediated transport” value is listed as at most 10%.
On to `O=C(O)c1cccnc1C(=O)O` [quinolinic acid], for which the “Effect on transport mediated by MRP4” value is given as “did not alter transport” and the “Decrease of MRP4-mediated transport” value is reported as at most 10%.
For `Cc1ccc(S(=O)(=O)O)cc1` [p-toluenesulfonic acid, reference compound], in that order: “did not alter transport” and at most 10%.
